Measurements taken from the supplement of paper PMC6045584.
± gives the standard deviation of the averaged measurements.

Compound: CC(=O)c1c(C)c2cnc(Nc3ccc(N4CCNCC4)cn3)nc2n(C2CCCC2)c1=O
Experiment: surviving fraction relative to DMSO-only wells; higher = less growth inhibition
Settings: 50 nM; exposure time: 5 days
Outline: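 At 250–500 cells per well in 384-well plates, log-phase tumour cell lines were seeded and, 24 hours on, exposed continuously for five days to inhibitors at 0.5, 1, 5, 10, 50, 100, 500 and 1000 nM. Viability readout was CellTiter-Glo luminescence, reported as surviving fraction normalised to the median of DMSO-only wells.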

Compared with CAL51 BREAST, OSHN BONE is higher in surviving fraction: 0.997 ± 0.029 for the first, 1.12 ± 0.037 for the second.

Compared with MCF7 BREAST, HT1080 SOFT TISSUE is higher in surviving fraction: 0.956 ± 0.048 for the first, 1.022 ± 0.0036 for the second.

MDAMB157 BREAST and 143B BONE are the same in surviving fraction: 1.03 ± 0.12 for the first, 1.03 ± 0.046 for the second.

First: SIHA CERVIX
Second: MDAMB134 BREAST
The surviving fraction of the first is lower: 1.1 ± 0.039 for the first, 1.154 ± 0.0057 for the second.

SG32 HEADNECK and NCIH441 LUNG are within error of each other in surviving fraction: 0.942 ± 0.11 for the first, 1.08 ± 0.093 for the second.

First: SG31 HEADNECK
Second: OS25HAL BONE
The surviving fraction of the first is lower: 0.976 ± 0.071 for the first, 1.11 ± 0.013 for the second.

Compared with HCC1954 BREAST, VP229 BREAST is lower in surviving fraction: 1.39 ± 0.17 for the first, 0.995 ± 0.055 for the second.

22RV1 PROSTATE and MDAMB231 BREAST are within error of each other in surviving fraction: 1.09 ± 0.053 for the first, 1.045 ± 0.0069 for the second.

RDES SOFT TISSUE and LM7 BONE are within error of each other in surviving fraction: 1.02 ± 0.24 for the first, 1.06 ± 0.093 for the second.

Compared with HMT3552 BREAST, SNU475 LIVER is lower in surviving fraction: 1.31 for the first, 1.07 ± 0.02 for the second.

HCC38 BREAST and HU09 BONE are within error of each other in surviving fraction: 1.21 ± 0.15 for the first, 1.04 ± 0.15 for the second.

Compared with ASKA SYNOVIAL, CADOES1 SOFT TISSUE is lower in surviving fraction: 1.07 ± 0.1 for the first, 0.83 ± 0.053 for the second.

First: SAOS2 BONE
Second: MDAMB436 BREAST
The surviving fraction of the first is higher: 1.1287 ± 0.00058 for the first, 0.92 ± 0.042 for the second.

Compared with 93VU HEADNECK, KPD BONE is lower in surviving fraction: 1.18 ± 0.12 for the first, 0.99 ± 0.069 for the second.

SYO1 SYNOVIAL and BT20 BREAST are within error of each other in surviving fraction: 0.995 ± 0.018 for the first, 0.981 ± 0.32 for the second.

SUM44 BREAST and CAL120 BREAST are within error of each other in surviving fraction: 1.08 ± 0.1 for the first, 1.01 ± 0.014 for the second.

First: CHLA90 AUTONOMIC GANGLIA
Second: HCC1806 BREAST
The surviving fraction of the first is lower: 0.934 ± 0.013 for the first, 1.12 ± 0.1 for the second.

HCC78 LUNG and MFM223 BREAST are within error of each other in surviving fraction: 1.02 ± 0.25 for the first, 1.15 ± 0.14 for the second.

Going from SG43 HEADNECK to HOS BONE, the surviving fraction rises from 0.73 ± 0.11 to 1.114 ± 0.0042.

MDAMB468 BREAST and SG27 HEADNECK are within error of each other in surviving fraction: 1.1 ± 0.038 for the first, 1.08 ± 0.15 for the second.

With ZR751 BREAST the surviving fraction was 1.13 ± 0.059.

Same assay, conditions: 100 nM; exposure time: 5 days

Compared with CAL51 BREAST, OSHN BONE is higher in surviving fraction: 1.07 ± 0.012 for the first, 1.1 ± 0.018 for the second.

Compared with MCF7 BREAST, HT1080 SOFT TISSUE is higher in surviving fraction: 0.934 ± 0.01 for the first, 1 ± 0.041 for the second.

MDAMB157 BREAST and 143B BONE are within error of each other in surviving fraction: 1.01 ± 0.13 for the first, 1.043 ± 0.0099 for the second.

SIHA CERVIX and MDAMB134 BREAST are within error of each other in surviving fraction: 1.13 ± 0.11 for the first, 1.26 ± 0.22 for the second.

SG32 HEADNECK and NCIH441 LUNG are within error of each other in surviving fraction: 0.993 ± 0.16 for the first, 1.09 ± 0.052 for the second.

SG31 HEADNECK and OS25HAL BONE are within error of each other in surviving fraction: 0.977 ± 0.24 for the first, 1.05 ± 0.046 for the second.

HCC1954 BREAST and VP229 BREAST are within error of each other in surviving fraction: 1.05 ± 0.056 for the first, 0.978 ± 0.15 for the second.

22RV1 PROSTATE and MDAMB231 BREAST are within error of each other in surviving fraction: 1.11 ± 0.08 for the first, 1.02 ± 0.021 for the second.

RDES SOFT TISSUE and LM7 BONE are within error of each other in surviving fraction: 1.02 ± 0.21 for the first, 1.09 ± 0.046 for the second.

Compared with HMT3552 BREAST, SNU475 LIVER is lower in surviving fraction: 1.25 for the first, 1.03 ± 0.088 for the second.

HCC38 BREAST and HU09 BONE are within error of each other in surviving fraction: 1.09 ± 0.096 for the first, 1.19 ± 0.049 for the second.

Compared with ASKA SYNOVIAL, CADOES1 SOFT TISSUE is lower in surviving fraction: 1.08 ± 0.074 for the first, 0.921 ± 0.039 for the second.

Going from SAOS2 BONE to MDAMB436 BREAST, the surviving fraction falls from 1.138 ± 0.0069 to 0.915 ± 0.07.

93VU HEADNECK and KPD BONE are within error of each other in surviving fraction: 1.14 ± 0.14 for the first, 0.993 ± 0.072 for the second.

SYO1 SYNOVIAL and BT20 BREAST are within error of each other in surviving fraction: 0.98 ± 0.066 for the first, 0.924 ± 0.24 for the second.

Compared with SUM44 BREAST, CAL120 BREAST is lower in surviving fraction: 1.05 ± 0.043 for the first, 0.974 ± 0.0098 for the second.

First: CHLA90 AUTONOMIC GANGLIA
Second: HCC1806 BREAST
The surviving fraction of the first is lower: 0.95 ± 0.035 for the first, 1.09 ± 0.024 for the second.

HCC78 LUNG and MFM223 BREAST are within error of each other in surviving fraction: 1.17 ± 0.14 for the first, 1.15 ± 0.1 for the second.

Going from SG43 HEADNECK to HOS BONE, the surviving fraction rises from 0.745 ± 0.12 to 1.07 ± 0.06.

MDAMB468 BREAST and SG27 HEADNECK are within error of each other in surviving fraction: 1.12 ± 0.032 for the first, 1.09 ± 0.1 for the second.

Test System ZR751 BREAST has a surviving fraction of 1.04 ± 0.11.

Same assay, conditions: 500 nM; exposure time: 5 days

First: CAL51 BREAST
Second: OSHN BONE
The surviving fraction of the first is lower: 0.968 ± 0.052 for the first, 1.13 ± 0.02 for the second.

Compared with MCF7 BREAST, HT1080 SOFT TISSUE is higher in surviving fraction: 0.925 ± 0.037 for the first, 0.9707 ± 0.0071 for the second.

MDAMB157 BREAST and 143B BONE are within error of each other in surviving fraction: 1 ± 0.12 for the first, 1.03 ± 0.027 for the second.

SIHA CERVIX and MDAMB134 BREAST are within error of each other in surviving fraction: 1.12 ± 0.15 for the first, 1.28 ± 0.12 for the second.

Going from SG32 HEADNECK to NCIH441 LUNG, the surviving fraction rises from 0.699 ± 0.059 to 1.15 ± 0.14.

SG31 HEADNECK and OS25HAL BONE are within error of each other in surviving fraction: 1.08 ± 0.13 for the first, 1.04 ± 0.054 for the second.

Going from HCC1954 BREAST to VP229 BREAST, the surviving fraction falls from 1.29 ± 0.054 to 0.932 ± 0.037.

First: 22RV1 PROSTATE
Second: MDAMB231 BREAST
The surviving fraction of the first is higher: 1.11 ± 0.071 for the first, 0.905 ± 0.013 for the second.

First: RDES SOFT TISSUE
Second: LM7 BONE
The surviving fraction of the first is higher: 1.67 ± 0.18 for the first, 0.999 ± 0.12 for the second.

Compared with HMT3552 BREAST, SNU475 LIVER is lower in surviving fraction: 1.17 for the first, 1.04 ± 0.021 for the second.

Compared with HCC38 BREAST, HU09 BONE is lower in surviving fraction: 1.28 ± 0.12 for the first, 0.984 ± 0.17 for the second.

Compared with ASKA SYNOVIAL, CADOES1 SOFT TISSUE is lower in surviving fraction: 0.82 ± 0.034 for the first, 0.726 ± 0.011 for the second.

First: SAOS2 BONE
Second: MDAMB436 BREAST
The surviving fraction of the first is higher: 1.13 ± 0.065 for the first, 0.915 ± 0.082 for the second.

First: 93VU HEADNECK
Second: KPD BONE
The surviving fraction of the first is higher: 1.17 ± 0.038 for the first, 0.775 ± 0.026 for the second.

SYO1 SYNOVIAL and BT20 BREAST are within error of each other in surviving fraction: 0.792 ± 0.061 for the first, 0.916 ± 0.22 for the second.

First: SUM44 BREAST
Second: CAL120 BREAST
The surviving fraction of the first is higher: 1.08 ± 0.068 for the first, 0.9508 ± 0.0081 for the second.

CHLA90 AUTONOMIC GANGLIA and HCC1806 BREAST are within error of each other in surviving fraction: 0.839 ± 0.053 for the first, 0.941 ± 0.17 for the second.

Going from HCC78 LUNG to MFM223 BREAST, the surviving fraction rises from 0.619 ± 0.11 to 1.09 ± 0.031.

SG43 HEADNECK and HOS BONE are within error of each other in surviving fraction: 1.02 ± 0.12 for the first, 1.05 ± 0.016 for the second.

MDAMB468 BREAST and SG27 HEADNECK are within error of each other in surviving fraction: 1.05 ± 0.057 for the first, 1.06 ± 0.048 for the second.

ZR751 BREAST was tested, and the surviving fraction was 1.23 ± 0.12.

Same assay, conditions: 1000 nM; exposure time: 5 days

First: CAL51 BREAST
Second: OSHN BONE
The surviving fraction of the first is lower: 0.908 ± 0.0048 for the first, 1.08 ± 0.032 for the second.

Compared with MCF7 BREAST, HT1080 SOFT TISSUE is higher in surviving fraction: 0.899 ± 0.032 for the first, 0.958 ± 0.024 for the second.

Going from MDAMB157 BREAST to 143B BONE, the surviving fraction rises from 0.902 ± 0.061 to 1.02 ± 0.027.

Going from SIHA CERVIX to MDAMB134 BREAST, the surviving fraction rises from 1.02 ± 0.067 to 1.25 ± 0.11.

Going from SG32 HEADNECK to NCIH441 LUNG, the surviving fraction rises from 0.721 ± 0.03 to 1 ± 0.13.

SG31 HEADNECK and OS25HAL BONE are within error of each other in surviving fraction: 1.14 ± 0.19 for the first, 0.982 ± 0.029 for the second.

First: HCC1954 BREAST
Second: VP229 BREAST
The surviving fraction of the first is higher: 1.36 ± 0.092 for the first, 0.776 ± 0.075 for the second.

First: 22RV1 PROSTATE
Second: MDAMB231 BREAST
The surviving fraction of the first is higher: 1.03 ± 0.027 for the first, 0.888 ± 0.023 for the second.

Compared with RDES SOFT TISSUE, LM7 BONE is lower in surviving fraction: 1.57 ± 0.2 for the first, 1.02 ± 0.0049 for the second.

Compared with HMT3552 BREAST, SNU475 LIVER is lower in surviving fraction: 1.19 for the first, 0.917 ± 0.04 for the second.

Compared with HCC38 BREAST, HU09 BONE is lower in surviving fraction: 1.24 ± 0.11 for the first, 1.04 ± 0.059 for the second.

ASKA SYNOVIAL and CADOES1 SOFT TISSUE are within error of each other in surviving fraction: 0.73 ± 0.023 for the first, 0.704 ± 0.048 for the second.

Compared with SAOS2 BONE, MDAMB436 BREAST is lower in surviving fraction: 1.07 ± 0.013 for the first, 0.915 ± 0.031 for the second.

First: 93VU HEADNECK
Second: KPD BONE
The surviving fraction of the first is higher: 1.19 ± 0.045 for the first, 0.679 ± 0.041 for the second.

SYO1 SYNOVIAL and BT20 BREAST are within error of each other in surviving fraction: 0.706 ± 0.055 for the first, 0.86 ± 0.21 for the second.

First: SUM44 BREAST
Second: CAL120 BREAST
The surviving fraction of the first is higher: 1.086 ± 0.0082 for the first, 0.935 ± 0.013 for the second.

Going from CHLA90 AUTONOMIC GANGLIA to HCC1806 BREAST, the surviving fraction rises from 0.687 ± 0.015 to 0.95 ± 0.072.

Compared with HCC78 LUNG, MFM223 BREAST is higher in surviving fraction: 0.579 ± 0.041 for the first, 1.03 ± 0.064 for the second.

SG43 HEADNECK and HOS BONE are within error of each other in surviving fraction: 0.766 ± 0.28 for the first, 1.08 ± 0.057 for the second.

MDAMB468 BREAST and SG27 HEADNECK are within error of each other in surviving fraction: 1.03 ± 0.064 for the first, 1.1 ± 0.33 for the second.

Test System ZR751 BREAST has a surviving fraction of 1.01 ± 0.054.
